Measurements: patent publication EP0374886A2, “Antiretroviral furan ketones” (MERRELL DOW PHARMACEUTICALS INC., priority 1988, dated 1990)
In brackets after ≈: the same amount, converted by molar mass.

Experiments:
[1] = system: Moloney murine leukemia virus (MoLV); experiment: in vitro XC plaque assay (inhibition of virus plaque growth in mouse SC-1 cells / rat XC cells); type: cell-based; conditions: SC1, concentration giving a 50% inhibition of virus plaque growth, compounds added 2 hours prior to virus, read-out: IC₅₀
Procedure: The ability of the furan ketone derivatives of this invention to act as anti-retroviral agents can be demonstrated by their ability to inhibit the growth and replication of murine leukemia virus, an oncogenic retrovirus, as determined by an in vitro XC plaque assay. This assay was performed according to the method of Rowe et al. (Virology, 1970, 42, 1136-39) as previously described by L. Hsu, et al. (J. Virological Methods, 1980, 1, 167-77) and T. L. Bowlin and M. R. Proffitt (J. Interferon Res., 1983, 3(1), 19-31). Mouse SC-1 cells (fibroblast) (10⁵) were seeded into each well of 6-well cluster plates (Costar #3506) in 4 ml Minimum Essential Medium (MEM) with 10% Fetal Calf Serum (FCS). Following an 18 hour incubation period (37°C), Moloney murine leukemia virus (MoLV) was applied at a predetermined titer to give optimal (i.e. countable) numbers of virus plaques. Compounds were added 2 hours prior to addition of the virus. Three days later the culture medium was removed, the SC-1 cell monolayers were exposed to UV irradiation (1800 ergs), and rat XC cells (10⁶) were seeded into each well in 4 ml MEM. Following an additional 3 day incubation (37°C), these cells were fixed with ethyl alcohol (95%) and stained with 0.3% crystal violet. Plaques were then counted under low magnification. The antiviral activities of various compounds of this invention are tabulated in Table I in terms of the IC₅₀, i,e, the concentration giving a 50% inhibition of virus plaque growth.

HIV1GB8 strain of HIV-1 = experiment: anti-HIV activity in T-cells (JM cells): syncytial cell count and p24 antigen after 4 days; type: cell-based; conditions: for SYNCYTIAL COUNT: untreated 29; for P24 ANTIGEN: untreated 801; for inhibition at 15 µg/mL / inhibition at 30 µg/mL: Human immunodeficiency virus 1, T-cell, 96 h, inhibition of syncytial count
Procedure: To further confirm the antiretroviral activity of these compounds, methyl 5-tetradecyloxy-2-furyl ketone and methyl 5-tetradecylthiomethyl-2-furyl ketone were evaluated for activity against HIV. Following overnight pretreatment of T-cells (JM cells) with the HIV1GB8 strain of HIV-1, the test compounds were added to the cell cultures at concentrations of 15 and 30 µg/ml. After 4 days the number of synctial cells in the cell culture and the amount of p24 antigen, also a measure of viral replication, were determined.

SMILES	IC50 [1]	other results
CCCCCCCCCCCCCCOc1ccc(C(=O)CCCCCC)o1 [Hexyl 5-tetradecyloxy-2-furyl ketone]	5 to 10 µg/mL (≈ 12.7 to 25.5 µM)	–
CCCCCCCCCCCCC(C)COc1ccc(C(C)=O)o1 (centres unmarked) [Methyl 5-(2-methyltetradecyloxy)-2-furyl ketone]	1 to 5 µg/mL (≈ 2.97 to 14.9 µM)	–
CC(=O)c1ccc(OCCC(C)CCCC(C)CCCC(C)C)o1 (centres unmarked) [Methyl 5-(3,7,11-trimethyldodecyloxy)-2-furyl ketone]	< 1 µg/mL	–
CCCCCCCC/C=C\CCCCCCCCOc1ccc(C(C)=O)o1 [Methyl 5-(cis-9-octadecenyl)oxy-2-furyl ketone]	< 1 µg/mL	–
CCCCCCCCCCOc1ccc(C(C)=O)o1 [Methyl 5-decyloxy-2-furyl ketone]	1 to 10 µg/mL (≈ 3.75 to 37.5 µM)	–
CCCCCCCCCCCCc1ccc(C(C)=O)o1 [Methyl 5-dodecyl-2-furyl ketone]	5 to 10 µg/mL (≈ 18 to 35.9 µM)	–
CCCCCCCCCCCCOc1ccc(C(C)=O)o1 [Methyl 5-dodecyloxy-2-furyl ketone]	1 to 10 µg/mL (≈ 3.4 to 34 µM)	–
CCCCCCCCCCCCCCCCOc1ccc(C(C)=O)o1 [Methyl 5-hexadecyloxy-2-furyl ketone]	1 to 10 µg/mL (≈ 2.85 to 28.5 µM)	–
CCCCCCCCCCCCCCCCCCOc1ccc(C(C)=O)o1 [Methyl 5-octadecyloxy-2-furyl ketone]	> 10 µg/mL	–
CCCCCCCCCCCCCCCOc1ccc(C(C)=O)o1 [Methyl 5-pentadecyloxy-2-furyl ketone]	5 to 10 µg/mL (≈ 14.9 to 29.7 µM)	–
CCCCCCCCCCCCCCc1ccc(C(C)=O)o1 [Methyl 5-tetradecyl-2-furyl ketone]	1 to 10 µg/mL (≈ 3.26 to 32.6 µM)	–
CCCCCCCCCCCCCCOc1ccc(C(C)=O)o1 [Methyl 5-tetradecyloxy-2-furyl ketone]	4 µg/mL (≈ 12.4 µM)	SYNCYTIAL COUNT (HIV1GB8 strain of HIV-1; 15 µg/ml): 19; P24 ANTIGEN (HIV1GB8 strain of HIV-1; 15 µg/ml): 450 pg X 10³/ml; SYNCYTIAL COUNT (HIV1GB8 strain of HIV-1; 30 µg/ml): 0; inhibition at 15 µg/mL (HIV1GB8 strain of HIV-1; 15 µg/ml): 34%; inhibition at 30 µg/mL (HIV1GB8 strain of HIV-1; 30 µg/ml): 100%
CCCCCCCCCCCCCCOCc1ccc(C(C)=O)o1 [Methyl 5-tetradecyloxymethyl-2-furyl ketone]	1 to 10 µg/mL (≈ 2.97 to 29.7 µM)	–
CCCCCCCCCCCCCCSc1ccc(C(C)=O)o1 [Methyl 5-tetradecylthio-2-furyl ketone]	1 to 10 µg/mL (≈ 2.95 to 29.5 µM)	–
CCCCCCCCCCCCCCSCc1ccc(C(C)=O)o1 [Methyl 5-tetradecylthiomethyl-2-furyl ketone]	1 µg/mL (≈ 2.84 µM)	SYNCYTIAL COUNT (HIV1GB8 strain of HIV-1; 15 µg/ml): 3; P24 ANTIGEN (HIV1GB8 strain of HIV-1; 15 µg/ml): 152 pg X 10³/ml; SYNCYTIAL COUNT (HIV1GB8 strain of HIV-1; 30 µg/ml): 0; inhibition at 15 µg/mL (HIV1GB8 strain of HIV-1; 15 µg/ml): 90%; inhibition at 30 µg/mL (HIV1GB8 strain of HIV-1; 30 µg/ml): 100%
CCCCCCCCCCCCCCOc1ccc(C(=O)C(C)(C)C)o1 [t-Butyl 5-tetradecyloxy-2-furyl ketone]	5 to 10 µg/mL (≈ 13.7 to 27.4 µM)	–
